{"source": "patent US20080237028A1", "about": "“Nucleation in liquid, methods of use thereof and methods of generation thereof” (Hanoch KISLEV, priority 2006, published 2008)", "origin": "cited, not measured here", "key": {"[1]": {"tested_on": "β-lactamase negative strain of Klebsiella pneumoniae grown as a biofilm"}, "[2]": {"tested_on": "β-lactamase negative strain of Klebsiella pneumoniae", "details": "planktonic"}, "[3]": {"tested_on": "biofilms of wild-type Pseudomonas aeruginosa", "details": "compared to equivalent bacteria lacking ability to generate biofilm"}, "[4]": {"tested_on": "biofilm forming P. aeroginosa bacteria", "details": "mature biofilm grown from bacteria treated with quorum sensing molecules; not in the untreated sample"}}, "data": [{"smiles": "CC1(C)S[C@@H]2[C@H](NC(=O)[C@H](N)c3ccccc3)C(=O)N2[C@H]1C(=O)O", "note": "[Ampicillin]", "values": [{"measurement": "increase in MIC", "setting": "[1]; biofilm versus planktonic, 5000 μg/mL", "result": 2500, "unit": "fold"}, {"measurement": "survival of biofilm under treatment", "setting": "[1]; treated for 4 hours with 5000 μg/mL ampicillin", "result": "survives well"}, {"measurement": "minimum inhibitory concentration (MIC)", "setting": "[2]", "result": 2, "unit": "µg/mL"}]}, {"smiles": "OCl", "note": "[sodium hypochlorite]", "values": [{"measurement": "concentration increase required to kill biofilms", "setting": "[3]", "result": 600, "unit": "fold"}]}, {"smiles": "NC[C@H]1O[C@H](O[C@H]2[C@H](O)[C@@H](O[C@H]3O[C@H](CO)[C@@H](O)[C@H](N)[C@H]3O)[C@H](N)C[C@@H]2N)[C@H](N)C[C@@H]1O", "note": "[tobramicyn]", "values": [{"measurement": "bacteria death within biofilm", "setting": "[4]", "result": "complete bacteria death"}]}]}
